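Values below derive from 48-hour exposures of cells grown in 96-well plates, with endpoints linearly interpolated between the two concentrations bracketing the appropriate inhibition level. Here, GI50 denotes the concentration required for 50% inhibition of growth.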 The source made the active and inactive calls. Rule as the data show it: active = GI50 up to about 1.1 µM and inactive = higher.

The results in this text go back to ChEMBL document CHEMBL1201862, “PubChem BioAssay data set” (2004).

Among the test systems are SK-MEL-2; OVCAR-3; SF-539; OVCAR-5; NCI-H460; ACHN; Malme-3M; RPMI-8226; U-251; HCT-116; SF-295; HCT-15; A498; UACC-62; SN12C; EKVX; NCI-H522; NCI-H23; CAKI-1; MCF7.
Holding throughout (assay): DTP human tumour cell line panel, 48 h

For `COc1cc2c3c(c4ccc(O)cc4c2cc1OC)[C@@H](O)[C@@H]1CCCN1C3`, the concentration for 50% growth inhibition (GI50) with SK-MEL-2 is < 0.001 µM (active); with OVCAR-3, 0.00122 µM (active); in the assay with SF-539, < 0.001 µM (active); in the assay on OVCAR-5 it was < 0.001 µM (active); with NCI-H460, < 0.001 µM (active); in the assay on ACHN it was < 0.001 µM (active). Moreover, the GI50 is < 0.001 µM (active) in the assay with Malme-3M; < 0.001 µM (active) in the assay with RPMI-8226; < 0.001 µM (active) in the assay on U-251; < 0.001 µM (active) in the assay on HCT-116; < 0.001 µM (active) with SF-295; less than 0.001 µM with HCT-15. Also, the GI50 was < 0.001 µM (active) in the assay with A498; 0.00105 µM (active) in the assay on UACC-62; < 0.001 µM (active) in the assay on SN12C; < 0.001 µM (active) in the assay on EKVX; < 0.001 µM (active) with NCI-H522; 0.0012 µM (active) in the assay on NCI-H23. Further, the GI50 with CAKI-1 and with MCF7 was < 0.001 µM (active) each time.

As to `CN1C(=O)C2C=C3CCCCC3=CC2N(C)C1=O` (stereo not given), the GI50 in the assay on SK-MEL-2, in the assay with OVCAR-3, in the assay on SF-539, in the assay on OVCAR-5, in the assay with NCI-H460 and in the assay with ACHN was > 100 µM (inactive) in each case. Further, the GI50 in the assay on Malme-3M was > 100 µM (inactive); with RPMI-8226, > 100 µM (inactive); with U-251, > 100 µM (inactive); with HCT-116, > 100 µM (inactive); with SF-295, > 100 µM (inactive); with HCT-15 it was greater than 100 µM. Besides, the GI50 in the assay on A498 was > 100 µM (inactive); with UACC-62, > 100 µM (inactive); with SN12C, > 100 µM (inactive); with EKVX, 77.4 µM (inactive); in the assay with NCI-H522, > 100 µM (inactive); in the assay on NCI-H23, > 100 µM (inactive). Further, the GI50 with CAKI-1 and in the assay with MCF7 was > 100 µM (inactive) in each case.

`COC(=O)[C@@H](NC1(c2ccccc2)c2ccccc2-c2ccccc21)[C@@H](C(=O)OC)N(NC(=O)OCc1ccccc1)C(=O)OCc1ccccc1.COC(=O)[C@@H](NC1(c2ccccc2)c2ccccc2-c2ccccc21)[C@H](C(=O)OC)N(NC(=O)OCc1ccccc1)C(=O)OCc1ccccc1`: the GI50 with SK-MEL-2, in the assay on OVCAR-3, in the assay on SF-539, in the assay with OVCAR-5, in the assay with NCI-H460 and in the assay with ACHN was > 100 µM (inactive) throughout. Moreover, the GI50 was 27.4 µM (inactive) with Malme-3M; > 100 µM (inactive) in the assay with RPMI-8226; 33.8 µM (inactive) with U-251; > 100 µM (inactive) in the assay with HCT-116; > 100 µM (inactive) in the assay with SF-295; greater than 100 µM in the assay with HCT-15. Besides, the GI50 is > 100 µM (inactive) in the assay on A498; > 100 µM (inactive) in the assay on UACC-62; > 100 µM (inactive) in the assay on SN12C; 21.4 µM (inactive) with EKVX; 29.2 µM (inactive) with NCI-H522; > 100 µM (inactive) in the assay with NCI-H23. For the same compound, the GI50 in the assay on CAKI-1 and in the assay with MCF7 was > 100 µM (inactive) each time.

For `Cc1ccc(S(=O)(=O)C2=Cc3ccc(C(F)(F)F)cc3C2(O)c2cccc(C(F)(F)F)c2)cc1` (stereo not given), the GI50 in the assay with SK-MEL-2 was 1.82 µM (inactive); in the assay with OVCAR-3 it was 1.64 µM (inactive); in the assay with SF-539, 1.95 µM (inactive); with OVCAR-5, 2.08 µM (inactive); with NCI-H460, 2.33 µM (inactive); with ACHN, 2.46 µM (inactive). Further, the GI50 in the assay with Malme-3M was 2.02 µM (inactive); with RPMI-8226, 2.65 µM (inactive); with U-251 it was 1.87 µM (inactive); in the assay on HCT-116, 1.58 µM (inactive); in the assay on SF-295, 2.45 µM (inactive); in the assay with HCT-15 it was 1.95 µM. For the same compound, the GI50 is 2 µM (inactive) in the assay on A498; 2.39 µM (inactive) in the assay on UACC-62; 1.88 µM (inactive) in the assay with SN12C; 2.87 µM (inactive) in the assay with EKVX; 1.66 µM (inactive) with NCI-H522; 2.01 µM (inactive) in the assay on NCI-H23. For the same compound, the values for the GI50 with CAKI-1 and in the assay with MCF7 were 4.05 µM (inactive) and 2.3 µM (inactive), respectively.

A word on the GI50: it is the concentration giving 50% growth inhibition.
